According to US4740233A, “Substituted 1,2,4-triazolo[1,5-a]-pyrimidine-2-sulfonamides and compositions and methods of controlling undesired vegetation and suppressing the nitrification of ammonium nitrogen in soil” (The Dow Chemical Company, priority 1986, dated 1988):

Assays:
sugar beet = assay: Preemergent control of plant species; format: in vivo, Beta saccharifera; settings: Beta vulgaris, pre-emergence, 336 h; 0.25 lb/acre; read-out: percent preemergent control
Procedure, shortened: (§1)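 Growth reduction relative to untreated plants of the same species, assessed two weeks after treatment, defines the control value. Compositions, mostly aqueous emulsions, were deposited uniformly on seeded greenhouse soil beds at the tabulated rates, with a water-treated bed as reference.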

wheat = assay: Postemergent control of plant species; format: in vivo, Triticum aestivum; settings: Triticum aestivum, post-emergence, 336 h, read-out: percent postemergent control
Procedure, shortened: (§2)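 Foliar spray, 2-4 leaf stage, greenhouse. Formulation: acetone solution (2x final conc.) mixed 1:1 with water + 0.1% surface active agent. ~2 wk hold, watered as needed. Readout = % growth reduction vs untreated same-species controls.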

barnyardgrass [1] = assay: Preemergent control of plant species; format: in vivo, Echinochloa crusgalli; settings: Echinochloa crus-galli, pre-emergence, 336 h; 0.25 lb/acre; read-out: percent preemergent control
Procedure, shortened: as §1

[2] = tested on: nitrification of ammonium nitrogen; assay: Suppression of nitrification of ammonium nitrogen in soil; settings: 27° C.
Procedure, shortened: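 Soil (20 g) moistened to its 1/3 bar tension value, mixed with test chemical and incubated sealed for two weeks at 27° C. Nitrate extracted with ammonium sulfate solution and measured by nitrate-specific ion electrode; value given as % NH4-N remaining.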

rice = assay: Control of aquatic plant species (paddy water); format: in vivo, Oryza sativa; settings: Oryza sativa, 216 h, nine days, read-out: Percent control; for pest or weed control at 1000 g/ha: 1.0 Kg/Ha
Procedure, shortened: (§3)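 1-2 inch plants transplanted into ~2 in soil, flooded ~1 in deep; acetone concentrate injected into floodwater, volume adjusted for target concentration; % control scored at 9 days.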

corn = assay: Preemergent control of plant species; format: in vivo, Zea mays; settings: Zea mays, pre-emergence, 336 h; 0.25 lb/acre; read-out: percent preemergent control
Procedure, shortened: as §1

cocklebur = assay: Postemergent control of plant species; format: in vivo, Xanthium spp.; settings: Xanthium strumarium, post-emergence, 336 h, read-out: percent postemergent control
Procedure, shortened: as §2

cotton = assay: Postemergent control of plant species; format: in vivo, Gossypium spp.; settings: Gossypium hirsutum, post-emergence, 336 h, read-out: percent postemergent control
Procedure, shortened: as §2

barnyardgrass [3] = assay: Control of aquatic plant species (paddy water); format: in vivo, Echinochloa crusgalli; settings: Echinochloa crus-galli, 216 h, nine days, read-out: Percent control; for pest or weed control at 1000 g/ha: 1.0 Kg/Ha
Procedure: In testing for such utility, the plant species to be tested were transplanted into 16 oz. containers into about 2 inches of soil when they were in the 1-2 inch stage and then flooded to a depth of about 1 inch. An acetone concentrate of the chemical to be tested was then injected into the paddy water, the volume injected being varied as desired to provide the desired concentration. Percent control was evaluated nine days after application.

jimsonweed = assay: Preemergent control of plant species; format: in vivo, Datura stramonium; settings: Datura stramonium, pre-emergence, 336 h; 0.25 lb/acre; read-out: percent preemergent control
Procedure, shortened: as §1

sprangletop = assay: Control of aquatic plant species (paddy water); format: in vivo, Leptochloa filiformis; settings: Leptochloa filiformis, 216 h, nine days, read-out: Percent control; for pest or weed control at 1000 g/ha: 1.0 Kg/Ha
Procedure, shortened: as §3

annual morning glory = assay: Preemergent control of plant species; format: in vivo, Ipomoea spp.; settings: Ipomoea, pre-emergence, 336 h; 0.25 lb/acre; read-out: percent preemergent control
Procedure, shortened: as §1

yellow nutsedge = assay: Control of aquatic plant species (paddy water); format: in vivo, Cyperus esculentus; settings: Cyperus, 216 h, nine days, read-out: Percent control; for pest or weed control at 1000 g/ha: 1.0 Kg/Ha
Procedure, shortened: as §3

sorghum = assay: Preemergent control of plant species; format: in vivo, Sorghum vulgare; settings: Sorghum, pre-emergence, 336 h; 0.25 lb/acre; read-out: percent preemergent control
Procedure, shortened: as §1

[4] = tested on: annual sugar beet variety (SLC03); assay: Plant growth regulator activity, postemergence; format: in vivo; settings: Beta vulgaris, post-emergence, 672 h, 4 weeks after spraying; read-out: Bolting Inhibition (postemergence), concentration with observed effect
Description: Using a regular biennial variety, even a bolting-susceptible variety would require a cold treatment of around 10-16 weeks plus a hormone treatement in conjunction with specific light intensities. Thus, for a screening organism, we selected one which would consistently produce bolting on a regular schedule. The screen is run with an annual sugar beet variety (SLC03) provided by Dr. Richard J. Hecker, Fort Collins, Colo. This variety is an inbred which bolts in the 6- to 8-leaf stage without any need for vernalization. This allows the screen to be run entirely in the greenhouse with all 110 chemical compounds tested on one tray. The sugarbeets are grown in 3×3 inch square pots in a greenhouse sandy loam potting mix. The sugarbeets are sprayed with test compounds when they are 2 to 3 weeks old (2 true leaves). The compounds are dissolved in acetone and diluted with water containing Tween 20 as a wetting agent. The concentration of acetone in the final spray is 20% and the concentration of Tween 20 is 0.05 percent. The plants are examined for the appearance of a bolt 4 weeks after spraying.

| Structure (SMILES) | plant injury at 280.212 g/ha (sugar beet) | plant injury at 500 ppm (wheat) | pest or weed control at 280.212 g/ha (barnyardgrass [1]) | % NH4-N Remaining After 2 Weeks Incubation ([2]; 0.01 ppm) | % NH4-N Remaining After 2 Weeks Incubation ([2]; 0.1 ppm) | % NH4-N Remaining After 2 Weeks Incubation ([2]; 1 ppm) | % NH4-N Remaining After 2 Weeks Incubation ([2]; 10 ppm) | pest or weed control at 1000 g/ha (rice) | plant injury at 280.212 g/ha (corn) | pest or weed control at 500 ppm (cocklebur) | plant injury at 500 ppm (cotton) | pest or weed control at 1000 g/ha (barnyardgrass [3]) | pest or weed control at 280.212 g/ha (jimsonweed) | pest or weed control at 1000 g/ha (sprangletop) | pest or weed control at 280.212 g/ha (annual morning glory) | pest or weed control at 1000 g/ha (yellow nutsedge) | plant injury at 280.212 g/ha (sorghum) | % NH4-N Remaining After 2 Weeks Incubation ([2]; 0.06 ppm) | % NH4-N Remaining After 2 Weeks Incubation ([2]; 0.125 ppm) | % NH4-N Remaining After 2 Weeks Incubation ([2]; 0.25 ppm) | also measured |
| --- | --- | --- | --- | --- | --- | --- | --- | --- | --- | --- | --- | --- | --- | --- | --- | --- | --- | --- | --- | --- | --- |
| Cc1cc(C)n2nc(S(=O)(=O)Nc3ccccc3I)nc2n1 [Compound 6] | 95% | 0% | 80% | 15% | 55% | 78% | 87% | 93% | 0% | 90% | 60% | 99% | 0% | 20% | 0% | 90% | 50% | – | – | – | – |
| Cc1cc(C)n2nc(S(=O)(=O)Nc3ccccc3F)nc2n1 [Compound 8] | 90% | 10% | 75% | – | – | 67% | – | 97% | 80% | 90% | – | 99% | 100% | 0% | 25% | 93% | – | 4% | 23% | 44% | % NH4-N Remaining After 2 Weeks Incubation ([2]; 0.5 ppm): 59%; minimal effective concentration [4]: 50 µg/mL |
| Cc1cc(C)n2nc(S(=O)(=O)Nc3ccccc3[N+](=O)[O-])nc2n1 [Compound 12] | 98% | 0% | 40% | – | – | 87% | – | 70% | 50% | 100% | – | 97% | 0% | 0% | 50% | 95% | – | 40% | 70% | 74% | % NH4-N Remaining After 2 Weeks Incubation ([2]; 0.5 ppm): 83% |
| COC(=O)c1cccc(F)c1NS(=O)(=O)c1nc2nc(C)cc(C)n2n1 [Compound 26] | 100% | 30% | 98% | – | – | 79% | – | – | 100% | 100% | 100% | – | 100% | – | 95% | – | – | 37% | 45% | 65% | % NH4-N Remaining After 2 Weeks Incubation ([2]; 0.5 ppm): 73%; pest or weed control at 125 g/ha (rice; 0.125 Kg/Ha): 93%; pest or weed control at 125 g/ha (barnyardgrass [3]; 0.125 Kg/Ha): 90%; pest or weed control at 125 g/ha (sprangletop; 0.125 Kg/Ha): 0%; pest or weed control at 125 g/ha (yellow nutsedge; 0.125 Kg/Ha): 95% |
| CCc1cccc(CC)c1NS(=O)(=O)c1nc2nc(C)cc(C)n2n1 [Compound 33] | 50% | 0% | 50% | 8% | 42% | 77% | 88% | 97% | 0% | 60% | 50% | 97% | 40% | 90% | 0% | 97% | 0% | – | – | – | – |
| Cc1cc(C)n2nc(S(=O)(=O)Nc3ccc(Cl)cc3C(F)(F)F)nc2n1 [Compound 34] | 90% | 0% | 20% | 11% | 51% | 78% | 90% | – | 0% | 100% | 70% | – | 0% | – | 20% | – | 90% | – | – | – | – |
| CC(=O)N(c1c(Cl)cccc1Cl)S(=O)(=O)c1nc2nc(C)cc(C)n2n1 [Compound 262] | 100% | 10% | 90% | – | – | 75% | – | – | 80% | – | 100% | – | 100% | – | 90% | – | – | 28% | – | 49% | % NH4-N Remaining After 2 Weeks Incubation ([2]; 4 ppm): 89% |
